The source of these data is publication PMC13339814 (Microbiology Spectrum, 2026).

Series [1] relates to PSP692. In words: purified PSP692 (1 µM) in 1× phosphate-buffered saline (PBS) at pH 6.0. Conditions: Segatella copri, 37°C.
For series [2], the system named is PSP464. In words: purified PSP464 (1 µM) in 100 mM glycine-HCl buffer at pH 4.0. Conditions: Stenotrophomonas maltophilia, 37°C.
Series [3] deals with PSP464. In words: HRMS analysis of 11-mer gliadin peptide degradation by PSP464. The class given is in vitro ADME, Stenotrophomonas maltophilia. How it is done: Gliadin degradation reactions were performed in duplicate for PSP464 activity on the 11-mer and PSP692 activity on the 33-mer at time points of 30 min, 1 h, 2 h, and 4 h. Following incubation, duplicate reactions were pooled prior to downstream processing to minimize technical variability. Reactions were quenched by the addition of trifluoroacetic acid (TFA) in water to a final concentration of 0.1% (vol/vol). To remove intact enzyme and retain low-molecular-weight degradation products, samples were centrifuged through Microcon centrifugal filter units with a 10 kDa MWCO at room temperature for 30 min. The filtrate, containing peptides <10 kDa, was collected and subjected to C18 ZipTip protocol for desalting prior to LC-MS/MS analysis. The elution solvent for desalting was 50% acetonitrile with 0.1% formic acid in water.
Samples were analysed on a Bruker IMPACT HD mass spectrometer in HRMS mode. MS scans were acquired over an m/z range of 50–3,500 at high resolution in positive ion mode. Raw data were processed in MZMine v3.9 ([38]), and the fragment list was exported as an Excel list followed by manual annotation. Chromatograms were generated for identified gliadin-derived peptides across the time course.

For series [4], the system named is human gastrointestinal proteases. In words: human gastrointestinal proteases. To be noted: cited from earlier work.
Series [5] deals with PSP692. In words: purified recombinant PSP692 in pH 6 PBS buffer. To be noted: Segatella copri, 37°C, up to 4 h.

Entries after “also recorded” stand apart in the source; their conditions may differ. Where no end group is shown, it is not given here. The star is where a group is joined. pNA = O=[N+]([O-])c1ccc(N*)cc1; Cbz = O=C(OCc1ccccc1)*

Turning to Cbz-Gly-Pro-pNA, the cleaved bond entry in series [1] is given as “Pro-pNA”.
Consider Cbz-Pro-Pro-Phe-pNA, for which the cleaved bond result in series [2] is given as “Phe-pNA”.
With GPQQSFPEQEA [11-mer], in series [3] (all digestion time points, 30 min to 4 h, pooled duplicates), the “intensity of parent peak (m/z ~1,218, +1) after incubation with PSP464” value is reported as “reduced”. For the same substance, the “peptide fragments formed from 11-mer by PSP464 (m/z 998 and 872)” value in series [3] (sequential C-terminal cleavage, sequences assigned from m/z) was “GPQQSFPEQ and GPQQSFPE”.
Regarding LQLQPFPQPQLPYPQPQLPYPQPQLPYPQPQPF, in series [4], the not cleaved entry is “evades degradation by human gastrointestinal proteases”. Moreover, in series [5], the fragment found entry is recorded as “LQLQP, major, 30 min; also recorded: QPFPQ; also recorded: QLQPFP, major, 30 min”.
